Experimental data from patent publication US10597388B2, “Pyridazinone herbicides” (FMC CORPORATION, priority 2014, dated 2020).

Key:
Type in all cases: in vivo
[1] = system: johnsongrass (Sorghum halepense); assay: Test C greenhouse herbicide test, pre- and postemergence
Procedure, shortened: (§1)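 Preemergence: seeds sown in a loam soil–sand blend and sprayed with test chemicals in a non-phytotoxic solvent mixture containing surfactant. Postemergence: plants grown in peat-based medium and treated at 2 to 18 cm (1- to 4-leaf stage). After 13 to 15 d in a greenhouse, injury was visually rated 0–100 against controls.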

[2] = system: barnyardgrass (Echinochloa crus-galli); assay: as above
Procedure, shortened: as §1

[3] = system: morningglory (Ipomoea coccinea); assay: as above
Procedure, shortened: as §1

[4] = system: soybean (Glycine max); assay: as above
Procedure, shortened: as §1

[5] = system: wheat (winter wheat, Triticum aestivum); assay: as above
Procedure, shortened: as §1

[6] = system: ryegrass, Italian (Italian ryegrass, Lolium multiflorum); assay: as above
Procedure, shortened: as §1

[7] = system: waterhemp (common waterhemp, Amaranthus rudis); assay: as above
Procedure, shortened: as §1

[8] = system: foxtail, giant (giant foxtail, Setaria faberii); assay: as above
Procedure, shortened: as §1

[9] = system: lambsquarters (Chenopodium album); assay: as above
Procedure, shortened: as §1

[10] = system: crabgrass, large (large crabgrass, Digitaria sanguinalis); assay: as above
Procedure, shortened: as §1

[11] = system: corn (Zea mays); assay: as above
Procedure, shortened: as §1

[12] = system: pigweed (Amaranthus retroflexus); assay: as above
Procedure, shortened: as §1

[13] = system: ragweed (common ragweed, Ambrosia elatior); assay: as above
Procedure, shortened: as §1

[14] = system: blackgrass (Alopecurus myosuroides); assay: as above
Procedure, shortened: as §1

[15] = system: oat, wild (wild oat, Avena fatua); assay: Test C greenhouse herbicide test, postemergence
Procedure, shortened: (§2)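 Seedlings are raised in pots of peat moss–vermiculite medium with starter nutrients, then receive postemergence test chemical at the 1- to 4-leaf stage. They are kept in the greenhouse 13 to 15 d and scored visually versus controls, 0 meaning no effect and 100 complete control.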

[16] = system: kochia (Kochia scoparia); assay: Test C greenhouse herbicide test, postemergence
Procedure, shortened: as §2

[17] = Postemergence, 31 g ai/ha, scale 0 to 100 (0 no effect, 100 complete control)
[18] = Postemergence, 62 g ai/ha, 0 to 100 scale (0 no effect, 100 complete control)
[19] = Postemergence, 250 g ai/ha, scale 0 to 100, 0 no effect, 100 complete control, 13 to 15 d
[20] = Preemergence, 31 g ai/ha, scale 0 to 100, 0 is no effect, 100 is complete control
[21] = Preemergence, 62 g ai/ha, scale 0 to 100, 0 is no effect, 100 is complete control
[22] = Preemergence, 125 g ai/ha, scale 0 to 100, 0 is no effect, 100 is complete control
[23] = Preemergence, 250 g ai/ha, scale 0 to 100 (0 no effect, 100 complete control)
[24] = postemergence, 125 g ai/ha, scale 0 to 100, 0 no effect, 100 complete control

## CCC(=O)Oc1c(C)nn(C)c(=O)c1-c1ccc(Br)c2ccccc12 [Compound 133]
[1]; [17]
  Plant response rating, Johnsongrass: 5
[1]; [18]
  Johnsongrass plant response rating: 10
[1]; [19]
  Plant response rating, Johnsongrass: 10
[1]; [20]
  Plant response rating, Johnsongrass: 5
[1]; [21]
  Plant response rating, Johnsongrass: 35
[1]; [22]
  Plant response rating, Johnsongrass: 30
[1]; [23]
  Johnsongrass plant response rating: 40
[1]; [24]
  Johnsongrass plant response rating: 20
[2]; [17]
  Plant response rating, Barnyardgrass: 15
[2]; [18]
  Barnyardgrass plant response rating: 30
[2]; Postemergence, 125 g ai/ha, scale 0 to 100, 0 is no effect, 100 is complete control
  Plant response rating, Barnyardgrass: 45
[2]; [19]
  Plant response rating, Barnyardgrass: 35
[2]; [20]
  Plant response rating, Barnyardgrass: 0
[2]; [21]
  Plant response rating, Barnyardgrass: 40
[2]; [22]
  Plant response rating, Barnyardgrass: 50
[2]; [23]
  Barnyardgrass plant response rating: 95
[3]; [17]
  Plant response rating, Morningglory: 100
[3]; [18]
  Morningglory plant response rating: 100
[3]; [19]
  Plant response rating, Morningglory: 95
[3]; [20]
  Plant response rating, Morningglory: 45
[3]; [21]
  Plant response rating, Morningglory: 85
[3]; [22]
  Plant response rating, Morningglory: 90
[3]; [23]
  Morningglory plant response rating: 95
[3]; [24]
  Morningglory plant response rating: 100
[4]; [17]
  Plant response rating, Soybean: 55
[4]; [18]
  Soybean plant response rating: 40
[4]; [19]
  Plant response rating, Soybean: 40
[4]; [20]
  Plant response rating, Soybean: 5
[4]; [21]
  Plant response rating, Soybean: 55
[4]; [22]
  Plant response rating, Soybean: 65
[4]; [23]
  Soybean plant response rating: 80
[4]; [24]
  Soybean plant response rating: 75
[5]; [17]
  Plant response rating, Wheat: 25
[5]; [18]
  Wheat plant response rating: 35
[5]; [19]
  Plant response rating, Wheat: 80
[5]; [20]
  Plant response rating, Wheat: 0
[5]; [21]
  Plant response rating, Wheat: 0
[5]; [22]
  Plant response rating, Wheat: 10
[5]; [23]
  Wheat plant response rating: 40
[5]; [24]
  Wheat plant response rating: 55
[6]; [17]
  Plant response rating, Ryegrass, Italian: 5
[6]; [18]
  Ryegrass, Italian plant response rating: 10
[6]; [19]
  Plant response rating, Ryegrass, Italian: 5
[6]; [20]
  Plant response rating, Ryegrass, Italian: 90
[6]; [21]
  Plant response rating, Ryegrass, Italian: 95
[6]; [22]
  Plant response rating, Ryegrass, Italian: 100
[6]; [23]
  Ryegrass, Italian plant response rating: 100
[6]; [24]
  Ryegrass, Italian plant response rating: 35
[7]; [17]
  Plant response rating, Waterhemp: 95
[7]; [18]
  Waterhemp plant response rating: 100
[7]; [19]
  Plant response rating, Waterhemp: 100
[7]; [20]
  Plant response rating, Waterhemp: 80
[7]; [21]
  Plant response rating, Waterhemp: 100
[7]; [22]
  Plant response rating, Waterhemp: 95
[7]; [23]
  Waterhemp plant response rating: 100
[7]; [24]
  Waterhemp plant response rating: 100
[8]; [17]
  Plant response rating, Foxtail, Giant: 25
[8]; [18]
  Foxtail, Giant plant response rating: 25
[8]; [19]
  Plant response rating, Foxtail, Giant: 55
[8]; [20]
  Plant response rating, Foxtail, Giant: 30
[8]; [21]
  Plant response rating, Foxtail, Giant: 65
[8]; [22]
  Plant response rating, Foxtail, Giant: 75
[8]; [23]
  Foxtail, Giant plant response rating: 90
[8]; [24]
  Foxtail, Giant plant response rating: 40
[9]; [17]
  Plant response rating, Lambsquarters: 95
[9]; [18]
  Lambsquarters plant response rating: 98
[9]; [19]
  Plant response rating, Lambsquarters: 100
[9]; [20]
  Plant response rating, Lambsquarters: 90
[9]; [21]
  Plant response rating, Lambsquarters: 90
[9]; [22]
  Plant response rating, Lambsquarters: 95
[9]; [23]
  Lambsquarters plant response rating: 95
[9]; [24]
  Lambsquarters plant response rating: 100
[10]; [17]
  Plant response rating, Crabgrass, Large: 0
[10]; [18]
  Crabgrass, Large plant response rating: 5
[10]; [19]
  Plant response rating, Crabgrass, Large: 20
[10]; [20]
  Plant response rating, Crabgrass, Large: 0
[10]; [21]
  Plant response rating, Crabgrass, Large: 30
[10]; [22]
  Plant response rating, Crabgrass, Large: 35
[10]; [23]
  Crabgrass, Large plant response rating: 65
[10]; [24]
  Crabgrass, Large plant response rating: 5
[11]; [17]
  Plant response rating, Corn: 5
[11]; [18]
  Corn plant response rating: 5
[11]; [19]
  Plant response rating, Corn: 5
[11]; [20]
  Plant response rating, Corn: 5
[11]; [21]
  Plant response rating, Corn: 5
[11]; [22]
  Plant response rating, Corn: 10
[11]; [23]
  Corn plant response rating: 10
[11]; [24]
  Corn plant response rating: 5
[12]; [17]
  Plant response rating, Pigweed: 80
[12]; [18]
  Pigweed plant response rating: 98
[12]; [19]
  Plant response rating, Pigweed: 95
[12]; [20]
  Plant response rating, Pigweed: 100
[12]; [21]
  Plant response rating, Pigweed: 100
[12]; [22]
  Plant response rating, Pigweed: 100
[12]; [23]
  Pigweed plant response rating: 100
[12]; [24]
  Pigweed plant response rating: 100
[13]; [17]
  Plant response rating, Ragweed: 0
[13]; [18]
  Ragweed plant response rating: 0
[13]; [19]
  Plant response rating, Ragweed: 5
[13]; [20]
  Plant response rating, Ragweed: 70
[13]; [21]
  Plant response rating, Ragweed: 75
[13]; [22]
  Plant response rating, Ragweed: 95
[13]; [23]
  Ragweed plant response rating: 98
[13]; [24]
  Ragweed plant response rating: 5
[14]; [17]
  Plant response rating, Blackgrass: 45
[14]; [18]
  Blackgrass plant response rating: 35
[14]; [19]
  Plant response rating, Blackgrass: 30
[14]; [20]
  Plant response rating, Blackgrass: 30
[14]; [21]
  Plant response rating, Blackgrass: 60
[14]; [22]
  Plant response rating, Blackgrass: 50
[14]; [23]
  Blackgrass plant response rating: 50
[14]; [24]
  Blackgrass plant response rating: 70
[15]; [17]
  Plant response rating, Oat, Wild: 90
[15]; [18]
  Oat, Wild plant response rating: 90
[15]; [19]
  Plant response rating, Oat, Wild: 95
[15]; [24]
  Oat, Wild plant response rating: 95
[16]; [17]
  Plant response rating, Kochia: 98
[16]; [18]
  Kochia plant response rating: 100
[16]; [19]
  Plant response rating, Kochia: 100
[16]; [24]
  Kochia plant response rating: 100
